Patent US10222368B2 (priority 2012, dated 2019)

Tests used:
α7nAChR-Aβ42 complex = assay: 96-well FITC-solid phase method in lymphocytes; type: cell-based, human; details: 1 nM C0105, 30 min; AD lymphocytes or Aβ42-treated control lymphocytes
Description: (§1) FIG. 2 illustrates the utility of a 96-well FITC-solid phase assay method to assess, in lymphocytes from AD patients and control subjects, levels of 1) the FLNA-α7nAChR association 2) the FLNA-TLR4 association and 3) α7nAChR-Aβ42 complexes. The top two panels show α7nAChR and TLR4 levels detected using respective FITC-anti-α7nAChR or FITC-anti-TLR4 antibodies after capturing FLNA coupled to α7nAChR and TLR4, respectively, with an anti-FLNA antibody coated on the microtiter solid phase plate.
(§2) To prepare lymphocytes, 7 ml of venous blood was collected into an EDTA-containing collecting tube or S-monovette (Sarstedt). Collected blood (6 ml) was layered onto 6 ml of Histopaque®-1077 (Sigma) at 25° C., and the anticoagulated blood was centrifuged at 400×g for 30 minutes (25° C.) to yield plasma (top layer) and lymphocytes (opaque interface). The lymphocytes were washed twice by mixing with 6 ml of oxygenated K-R followed by centrifugation at 250×g for 10 minutes and resuspension. […]
After two 1-minute washes with 50 mM Tris HCl (pH 7.4), each well was incubated in 0.5 μg/well FITC-conjugated anti-mouse IgG (human and mouse absorbed) for 1 hour at 25° C. Plates were washed twice with 200 μl ice-cold Tris HCl, pH 7.4 and the residual FITC-Aβ42 signals were determined by multimode plate reader, DTX880 (Beckman). […]

α7nAChR-FLNA complex [1] = target: T1, α7nAChR-FLNA complex (Homo sapiens, UniProt P21333); assay: 96-well FITC-solid phase method in lymphocytes; type: cell-based; details: 1 nM C0105, 30 min; AD lymphocytes or Aβ42-treated control lymphocytes
T1 construct: To determine the levels of FLNA-α7nAChR, FLNA-TLR4 and α7nAChR-Aβ42 complexes in the lymphocytes; endogenous in cells; host or cells: lymphocytes from venous blood of AD patients and control subjects (ex vivo)
Description: as §1, §2
(§3) After two 1-minute washes with 50 mM Tris HCl (pH 7.4), each well was incubated in 0.5 μg/well FITC-conjugated anti-mouse IgG (human and mouse absorbed) for 1 hour at 25° C. Plates were washed twice with 200 μl ice-cold Tris HCl, pH 7.4 and the residual FITC-Aβ42 signals were determined by multimode plate reader, DTX880 (Beckman).

TLR4-FLNA complex = target: T2, TLR4-FLNA complex (Homo sapiens, UniProt P21333); assay: 96-well FITC-solid phase method in lymphocytes; type: cell-based; details: 1 nM C0105, 30 min; AD lymphocytes or Aβ42-treated control lymphocytes
T2 construct: To determine the levels of FLNA-α7nAChR, FLNA-TLR4 and α7nAChR-Aβ42 complexes in the lymphocytes; endogenous in cells; host or cells: lymphocytes from venous blood of AD patients and control subjects (ex vivo)
Description: as §1, §2, §3

TLR4/FLNA complexes = TLR4/FLNA complexes (Homo sapiens, UniProt P21333); assay: Protein A and Protein G capture plate assay in lymphocytes; details: 1 nM
[2] = target: FLNA association with TLR4 (Mus musculus, UniProt Q8BTM8); assay: ICV Aβ42 infusion mouse model, synaptosome co-immunoprecipitation; details: 10 mg/kg C0105 i.p. twice daily, 2 weeks; prefrontal cortex and hippocampus
TLR4/FLNA = target: T3, TLR4/FLNA (Rattus norvegicus, UniProt A0A8I5ZV49); assay: Rat frontal cortical synaptosomes treated with Aβ42, anti-FLNA immunoprecipitation / Western blot; type: cell-based; details: 1 or 10 nM compound, simultaneously or 10 min prior to 0.1 μM Aβ42; Dunnett's test
T3 construct: from tissue; host or cells: rat frontal cortical synaptosomes
Protocol: The complexes in the solubilized synaptosomes, and α7nAChR, TLR4 and FLNA levels in the anti-FLNA immunoprecipitates were determined by Western blotting (FIG. 15A) in which numerals outside of and to the left of the blots are as discussed before. Amounts present in the blots were quantified by densitometry (FIG. 15B). […] Structural formulas of the compounds used in this and the other figures are provided hereinafter.

α7nAChR-FLNA complex [3] = target: T1, α7nAChR-FLNA complex; assay: Lymphocyte co-immunoprecipitation / Western blot; type: cell-based
Protocol: To prepare lymphocytes, 7 ml of venous blood was collected into an EDTA-containing collecting tube or S-monovette (Sarstedt, Newton, N.C.). […] The lymphocytes were washed twice by mixing with 6 ml oxygenated Kreb's-Ringer followed by centrifugation at 250×g for 10 minutes and re-suspension. […] To store lymphocytes, the lymphocyte pellet was resuspended in 250 μl ice-cold oxygenated Kreb's-Ringer containing 10% glycerol, and stored at −20° C. for 1 hour before storage at −80° C.
In the case that frozen lymphocyte samples were used, a lymphocyte suspension was gradually thawed by storing at −20° C. for 1 hour after removal from −80° C. and then at thawed at 4° C.
The incubation was terminated by adding 1 ml ice-cold Ca^2+-free Kreb's-Ringer containing 0.5 mM EGTA/0.1 mM EDTA, protease and phosphatase inhibitors followed by centrifugation. The resultant lymphocyte pellet was homogenized in 0.25 ml ice-cold immunoprecipitation buffer. […]
The membranes were then washed 3 times (1 minutes each) with 0.1% Tween-20 containing PBS and then once with distilled water for 1 minutes. The immunoreactivity was detected by a chemiluminutesescent method (Supersignal chemiluminutesescent reagents−Pierce/Thermo), and visualized by immediate exposure to X-ray film for 10-30 seconds (depending on the intensity of the signal). Specific protein bands were quantified by densitometric scanning (GS-800 calibrated densitometer, Bio-Rad Laboratories).
The membranes were then washed 3 times (1 minutes each) with 0.1% Tween®-20-containing PBS and then once with distilled water for 1 minute. The immunoreactivity was detected by a chemiluminutesescent method (Supersignal chemiluminutesescent reagents—Pierce/Thermo), and visualized by immediate exposure to X-ray film for 10-30 seconds (depending on the intensity of the signal). Specific protein bands were quantified by densitometric scanning (GS-800 calibrated densitometer, Bio-Rad Laboratories). The data are expressed as the ratio of α7nAChR/FLNA, TLR4/FLNA or α7nAChR/β-Actin optical intensities (in arbitrary units).

T1 sequence (P21333 2-2647 limits assumed, one chain of several): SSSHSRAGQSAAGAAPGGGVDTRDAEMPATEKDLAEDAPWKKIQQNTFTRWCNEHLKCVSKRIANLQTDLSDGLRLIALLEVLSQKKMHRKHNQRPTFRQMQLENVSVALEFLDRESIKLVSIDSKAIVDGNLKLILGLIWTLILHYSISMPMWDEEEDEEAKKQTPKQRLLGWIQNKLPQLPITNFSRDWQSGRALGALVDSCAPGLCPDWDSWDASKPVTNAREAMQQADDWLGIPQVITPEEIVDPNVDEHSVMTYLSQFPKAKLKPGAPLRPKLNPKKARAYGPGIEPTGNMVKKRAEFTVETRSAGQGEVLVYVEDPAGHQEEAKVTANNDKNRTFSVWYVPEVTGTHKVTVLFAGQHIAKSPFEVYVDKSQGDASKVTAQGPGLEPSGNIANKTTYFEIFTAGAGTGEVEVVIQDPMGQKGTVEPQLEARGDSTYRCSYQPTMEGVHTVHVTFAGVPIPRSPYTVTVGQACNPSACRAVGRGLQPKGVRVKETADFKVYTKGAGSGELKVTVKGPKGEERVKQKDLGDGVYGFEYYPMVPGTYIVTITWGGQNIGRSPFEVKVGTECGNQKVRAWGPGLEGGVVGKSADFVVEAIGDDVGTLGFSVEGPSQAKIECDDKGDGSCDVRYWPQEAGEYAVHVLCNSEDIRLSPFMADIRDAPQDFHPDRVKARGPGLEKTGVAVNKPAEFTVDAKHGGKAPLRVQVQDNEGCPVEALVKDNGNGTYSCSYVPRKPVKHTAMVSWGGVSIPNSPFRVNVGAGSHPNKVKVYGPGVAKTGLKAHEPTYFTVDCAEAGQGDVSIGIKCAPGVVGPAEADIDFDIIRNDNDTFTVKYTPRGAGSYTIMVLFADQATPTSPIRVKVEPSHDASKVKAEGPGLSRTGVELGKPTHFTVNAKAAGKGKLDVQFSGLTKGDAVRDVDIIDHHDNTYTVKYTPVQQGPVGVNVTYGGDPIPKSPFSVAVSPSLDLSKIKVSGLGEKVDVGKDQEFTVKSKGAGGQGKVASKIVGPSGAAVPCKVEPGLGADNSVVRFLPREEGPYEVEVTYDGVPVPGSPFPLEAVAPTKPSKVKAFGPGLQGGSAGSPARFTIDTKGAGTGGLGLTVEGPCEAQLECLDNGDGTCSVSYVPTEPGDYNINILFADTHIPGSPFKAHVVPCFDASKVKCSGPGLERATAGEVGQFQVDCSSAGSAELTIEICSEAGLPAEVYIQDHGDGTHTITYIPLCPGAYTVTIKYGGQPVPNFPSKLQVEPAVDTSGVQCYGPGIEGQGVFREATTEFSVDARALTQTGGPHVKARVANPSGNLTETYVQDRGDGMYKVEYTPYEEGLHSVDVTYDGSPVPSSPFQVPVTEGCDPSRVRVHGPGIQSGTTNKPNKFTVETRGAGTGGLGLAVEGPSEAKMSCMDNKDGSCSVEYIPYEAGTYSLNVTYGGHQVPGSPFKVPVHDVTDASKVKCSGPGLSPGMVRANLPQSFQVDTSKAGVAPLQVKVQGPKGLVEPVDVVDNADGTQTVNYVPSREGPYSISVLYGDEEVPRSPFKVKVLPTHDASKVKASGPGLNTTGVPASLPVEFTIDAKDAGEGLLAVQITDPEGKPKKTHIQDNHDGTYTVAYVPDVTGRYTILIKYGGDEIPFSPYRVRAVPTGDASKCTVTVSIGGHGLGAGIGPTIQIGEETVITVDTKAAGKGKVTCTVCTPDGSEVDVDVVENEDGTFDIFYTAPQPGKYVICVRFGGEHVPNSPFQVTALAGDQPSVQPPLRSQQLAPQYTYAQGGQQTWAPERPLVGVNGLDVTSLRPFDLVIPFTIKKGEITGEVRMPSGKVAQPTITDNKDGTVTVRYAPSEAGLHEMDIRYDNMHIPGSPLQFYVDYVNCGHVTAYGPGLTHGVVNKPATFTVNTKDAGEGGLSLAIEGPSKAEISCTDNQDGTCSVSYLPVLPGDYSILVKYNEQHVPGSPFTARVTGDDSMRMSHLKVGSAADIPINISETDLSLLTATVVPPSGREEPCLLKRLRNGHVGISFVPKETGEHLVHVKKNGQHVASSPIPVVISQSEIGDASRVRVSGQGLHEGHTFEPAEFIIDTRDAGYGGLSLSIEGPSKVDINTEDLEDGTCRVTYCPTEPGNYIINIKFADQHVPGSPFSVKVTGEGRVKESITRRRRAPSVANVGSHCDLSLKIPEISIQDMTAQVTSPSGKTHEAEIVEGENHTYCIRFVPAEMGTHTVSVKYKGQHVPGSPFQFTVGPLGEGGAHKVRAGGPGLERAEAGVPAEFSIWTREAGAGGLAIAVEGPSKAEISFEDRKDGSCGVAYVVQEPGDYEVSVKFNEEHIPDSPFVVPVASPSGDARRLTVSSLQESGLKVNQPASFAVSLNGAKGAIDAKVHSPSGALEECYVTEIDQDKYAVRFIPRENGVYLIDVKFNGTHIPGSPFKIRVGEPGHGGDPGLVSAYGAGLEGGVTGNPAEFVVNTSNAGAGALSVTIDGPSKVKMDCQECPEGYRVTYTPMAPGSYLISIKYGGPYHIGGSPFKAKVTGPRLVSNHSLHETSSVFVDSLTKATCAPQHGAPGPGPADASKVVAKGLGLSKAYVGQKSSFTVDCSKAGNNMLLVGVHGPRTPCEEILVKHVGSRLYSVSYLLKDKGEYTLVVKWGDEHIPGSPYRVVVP
Chain of TLR4/FLNA complexes (P21333 2-2647 limits assumed, one chain of several): as above
T2 sequence (P21333 2-2647 limits assumed, one chain of several): as above

With `CN1CCC2(CC1)NCC(=O)N2Cc1ccccc1` [Compound C0105] the “Effect on α7nAChR-Aβ42 complexes (in words)” value (α7nAChR-Aβ42 complex) was “reduce all three associations”, the “Effect on FLNA-α7nAChR association (in words)” value (α7nAChR-FLNA complex [1]) was “reduce all three associations” and the “Effect on FLNA-TLR4 association (in words)” value (TLR4-FLNA complex) was “reduce all three associations”. For the same compound, the “Decrease in amount of TLR4 FLNA complexes” value (TLR4/FLNA complexes; AD lymphocytes) was “approximately 50%”, the “Response of TLR4/FLNA complexes (in words)” value (TLR4/FLNA complexes; YCI lymphocytes) was “essentially non-responsive” and the “Effect on Aβ42-induced FLNA association with TLR4 (in words)” value [2] was “reduced Aβ42-induced increases in FLNA associations”. For the same compound, the “TLR4/FLNA ratio versus Aβ42 alone (in words)” value (TLR4/FLNA) was “statistically different from Aβ42 alone”, the inhibition at 0.001 µM (α7nAChR-FLNA complex [3]; 1 nM C0105, 30 min, lymphocytes of 20 AD subjects, read-out: Reduction of α7nAChR/FLNA complex level (% inhibition)) was ~50% and the “Effect on amount of α7nAChR-FLNA complexes (in words), pilot study” value (α7nAChR-FLNA complex [3]; 1 nM C0105, Aβ42-treated control and untreated AD lymphocytes) was “decreases the amount of α7nAChR-FLNA complexes”. The “Effect on α7nAChR/FLNA complex level (in words)” value (α7nAChR-FLNA complex [3]; 1 nM C0105, lymphocytes of 10 YCI controls) was “no discernible effect”.
